Source: paper PMC2358886, “Evolution of pharmacologic specificity in the pregnane X receptor” (BMC Evolutionary Biology, 2008)
Like-named read-outs stand apart in the source and are kept apart here.

Assays:
human PXR [1] = molecular target: T1, human PXR (Homo sapiens, UniProt O75469); conditions: for hPXR Efficacy: human
T1 sequence (O75469 1-434): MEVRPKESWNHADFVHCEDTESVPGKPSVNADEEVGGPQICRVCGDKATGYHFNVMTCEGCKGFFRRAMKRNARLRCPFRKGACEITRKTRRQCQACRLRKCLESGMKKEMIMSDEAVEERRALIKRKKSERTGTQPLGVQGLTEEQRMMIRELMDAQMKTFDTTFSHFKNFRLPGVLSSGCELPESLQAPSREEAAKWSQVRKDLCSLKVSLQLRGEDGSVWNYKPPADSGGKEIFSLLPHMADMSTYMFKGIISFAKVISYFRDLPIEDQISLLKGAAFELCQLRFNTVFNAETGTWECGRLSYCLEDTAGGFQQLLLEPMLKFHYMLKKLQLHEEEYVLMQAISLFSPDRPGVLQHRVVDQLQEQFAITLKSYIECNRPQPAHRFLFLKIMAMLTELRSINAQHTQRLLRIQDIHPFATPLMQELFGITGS

zebrafish PXR [2] = molecular target: T2, zebrafish PXR (Danio rerio, UniProt A5WYG8); conditions: for zfPXR Activity: -log(EC50), EC50 in molar units, activation of zebrafish PXR
T2 sequence (A5WYG8 144-430): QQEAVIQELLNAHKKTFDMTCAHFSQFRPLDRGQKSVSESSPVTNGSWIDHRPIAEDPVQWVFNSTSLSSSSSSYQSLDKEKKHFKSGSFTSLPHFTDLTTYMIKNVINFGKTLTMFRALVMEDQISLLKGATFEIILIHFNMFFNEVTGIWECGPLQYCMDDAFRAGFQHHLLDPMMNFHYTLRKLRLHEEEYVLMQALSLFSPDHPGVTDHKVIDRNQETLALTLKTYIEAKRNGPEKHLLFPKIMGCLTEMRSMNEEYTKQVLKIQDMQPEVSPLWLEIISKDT

HepG2 cells [3] = test system: HepG2 cells
zebrafish PXR [4] = molecular target: T2, zebrafish PXR; assay: cell-based
human PXR [5] = molecular target: T1, human PXR; assay: PXR activation luciferase reporter assay, human PXR in HepG2-NTCP cells
rabbit PXR = molecular target: T3, rabbit PXR (Oryctolagus cuniculus, UniProt Q9TU02); assay: PXR activation luciferase reporter assay, rabbit PXR; conditions: for Rabbit PXR efficacy, ε: relative to 50 μM 5α-pregnan-3,20-dione, assigned an efficacy of 1.0; for Rabbit PXR Activity: -log(EC50), EC50 in molar units
T3 sequence (Q9TU02 1-411): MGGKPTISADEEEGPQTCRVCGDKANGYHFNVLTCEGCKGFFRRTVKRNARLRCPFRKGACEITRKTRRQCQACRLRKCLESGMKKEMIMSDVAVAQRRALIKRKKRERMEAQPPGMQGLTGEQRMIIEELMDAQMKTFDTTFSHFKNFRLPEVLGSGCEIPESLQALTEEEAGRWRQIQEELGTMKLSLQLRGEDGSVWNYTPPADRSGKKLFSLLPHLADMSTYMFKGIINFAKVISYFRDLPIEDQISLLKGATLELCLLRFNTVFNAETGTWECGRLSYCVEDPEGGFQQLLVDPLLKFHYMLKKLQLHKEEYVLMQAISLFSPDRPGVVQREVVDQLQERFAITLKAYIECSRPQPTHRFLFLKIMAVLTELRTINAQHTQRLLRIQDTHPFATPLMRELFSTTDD

mouse PXR = molecular target: T4, mouse PXR (Mus musculus, UniProt O54915); conditions: for Mouse PXR Activity: -log(EC50), EC50 in molar units
T4 sequence (O54915 1-431): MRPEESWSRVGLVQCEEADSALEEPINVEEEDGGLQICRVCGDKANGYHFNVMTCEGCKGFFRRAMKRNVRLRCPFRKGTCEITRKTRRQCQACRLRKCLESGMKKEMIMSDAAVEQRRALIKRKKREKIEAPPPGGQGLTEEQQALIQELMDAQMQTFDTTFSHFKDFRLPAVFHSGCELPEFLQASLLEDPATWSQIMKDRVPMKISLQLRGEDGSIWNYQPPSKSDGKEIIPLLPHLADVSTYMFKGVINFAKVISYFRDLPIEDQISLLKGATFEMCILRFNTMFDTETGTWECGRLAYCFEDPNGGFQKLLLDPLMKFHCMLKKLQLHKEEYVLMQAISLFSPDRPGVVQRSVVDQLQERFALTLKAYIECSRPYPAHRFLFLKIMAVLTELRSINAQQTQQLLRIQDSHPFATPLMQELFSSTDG

rat PXR = molecular target: T5, rat PXR (Rattus norvegicus, UniProt Q9R1A7); conditions: for Rat PXR Activity: -log(EC50), EC50 in molar units
T5 sequence (Q9R1A7 1-431): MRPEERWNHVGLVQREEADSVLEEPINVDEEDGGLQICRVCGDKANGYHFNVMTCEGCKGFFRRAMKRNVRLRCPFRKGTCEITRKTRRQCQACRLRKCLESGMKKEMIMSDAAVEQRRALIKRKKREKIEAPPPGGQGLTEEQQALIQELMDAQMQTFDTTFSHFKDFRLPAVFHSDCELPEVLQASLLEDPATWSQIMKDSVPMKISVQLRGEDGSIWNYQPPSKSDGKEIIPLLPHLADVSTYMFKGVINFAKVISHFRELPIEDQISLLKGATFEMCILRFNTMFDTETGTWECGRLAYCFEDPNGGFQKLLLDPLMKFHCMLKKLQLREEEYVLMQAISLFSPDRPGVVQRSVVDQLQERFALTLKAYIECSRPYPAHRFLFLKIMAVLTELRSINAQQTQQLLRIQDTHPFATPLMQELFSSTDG

chicken PXR = molecular target: T6, chicken PXR (Gallus gallus, UniProt Q9DFH3)
T6 sequence (Q9DFH3 1-391): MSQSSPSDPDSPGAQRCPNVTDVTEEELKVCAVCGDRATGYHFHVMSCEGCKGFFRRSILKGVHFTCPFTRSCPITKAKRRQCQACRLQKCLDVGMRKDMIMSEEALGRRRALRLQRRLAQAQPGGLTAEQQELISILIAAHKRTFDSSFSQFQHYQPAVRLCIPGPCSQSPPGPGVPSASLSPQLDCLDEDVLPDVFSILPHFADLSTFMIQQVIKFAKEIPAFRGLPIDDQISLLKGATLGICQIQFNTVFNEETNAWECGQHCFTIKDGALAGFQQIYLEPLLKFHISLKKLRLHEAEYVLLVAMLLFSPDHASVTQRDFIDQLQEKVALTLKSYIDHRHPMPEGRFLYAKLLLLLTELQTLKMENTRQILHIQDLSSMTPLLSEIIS

HepG2 cells [6] = assay: Toxicity assays in HepG2 cells (MTT and alamar blue reduction); conditions: lowest concentration that produced significant toxicity in the HepG2 cells
[7] = relative to 20 μM 5α-androstan-3α-ol, assigned an efficacy of 1.0
[8] = zfPXR Activity, -log(EC50), EC50 in molar units, activation of zebrafish PXR
[9] = hPXR Activity, -log(EC50), EC50 in molar units, activation of human PXR
[10] = relative to 20 μM pregnenolone 16α-carbonitrile, assigned an efficacy of 1.0
[11] = -log(EC50), EC50 in molar units, activation of human PXR

SMILES: C[C@]12CCC(=O)C=C1CC[C@@H]1[C@@H]2CC[C@]2(C)C(=O)CC[C@@H]12 [AN7, 4-Androsten-3,17-dione]
- hPXR Efficacy (human PXR [1]): 0.59
- zfPXR Efficacy (zebrafish PXR [2]; [7]): 0.14
- Toxicity (HepG2 cells [3]): None
- EC50 (zebrafish PXR [4]; Zebrafish PXR EC50 (concentration class, Figure 2B), class read from box colour, same key as Figure 2A): < 10 µM
- EC50 (zebrafish PXR [4]; [8]): 3.63 µM
- EC50 (human PXR [5]; Human PXR EC50 (concentration class, Figure 2A), class read from box colour against the key of Figure 2): 11 to 50 µM
- EC50 (human PXR [5]; [9]): 20.4 µM

SMILES: C[C@@]12CCC[C@H]1[C@@H]1CC[C@H]3C[C@@H](O)CC[C@]3(C)[C@H]1CC2 [AN20, 5α-Androstan-3β-ol]
- hPXR Efficacy (human PXR [1]): 0.43
- zfPXR Efficacy (zebrafish PXR [2]; zebrafish): 1.66
- Toxicity (HepG2 cells [3]; human, 24 hr): 50 µM
- EC50 (zebrafish PXR [4]): 2.69 µM
- EC50 (human PXR [5]; [9]): 0.794 µM

SMILES: C[C@@]12CCC[C@H]1[C@@H]1CC[C@@H]3C[C@H](O)CC[C@]3(C)[C@H]1CC2 [AN23, 5β-Androstan-3α-ol]
- hPXR Efficacy (human PXR [1]): 1.12
- zfPXR Efficacy (zebrafish PXR [2]; zebrafish): 0.33
- Toxicity (HepG2 cells [3]): None
- EC50 (zebrafish PXR [4]): 2.57 µM
- EC50 (human PXR [5]; [9]): 1.41 µM

SMILES: C[C@@]12C=CC[C@H]1[C@@H]1CC=C3C[C@@H](O)CC[C@]3(C)[C@H]1CC2 [AN25, Androst-5,16-dien-3β-ol]
- hPXR Activity (human PXR [1]): None
- zfPXR Efficacy (zebrafish PXR [2]; zebrafish): 1.50
- Toxicity (HepG2 cells [3]; human, 24 hr): 100 µM
- EC50 (zebrafish PXR [4]): 2.51 µM

SMILES: CC(CCC(=O)NCC(=O)O)C1CCC2C3CCC4CC(O)CCC4(C)C3CC(O)C12C (stereo not drawn) [BI009, Glycodeoxycholic acid]
- EC50 (rabbit PXR): 15.5 µM
- Rabbit PXR efficacy, ε (rabbit PXR): 0.40

SMILES: C[C@H](CCC(=O)NCCS(=O)(=O)O)[C@H]1CC[C@H]2[C@@H]3CC[C@@H]4C[C@H](O)CC[C@]4(C)[C@H]3C[C@H](O)[C@]12C [BI010, Taurodeoxycholic acid]
- EC50 (rabbit PXR): 14.5 µM
- Rabbit PXR efficacy, ε (rabbit PXR): 0.15

SMILES: CC(CCC(=O)O)C1CCC2C3C(O)C(O)C4CC(O)CCC4(C)C3CCC12C (stereo not drawn) [BI017, ω-Muricholic acid]
- Mouse PXR Activity (mouse PXR): No effect
- Rat PXR Activity (rat PXR): No effect

SMILES: C[C@H](CCC(=O)O)[C@H]1CC[C@H]2[C@@H]3[C@H](O)[C@@H](O)[C@@H]4C[C@H](O)CC[C@]4(C)[C@H]3CC[C@]12C [BI018, α-Muricholic acid]
- Mouse PXR Activity (mouse PXR): 4.59
- Mouse PXR efficacy, ε (mouse PXR; [10]): 2.63
- Rat PXR Activity (rat PXR): 3.95
- Rat PXR efficacy, ε (rat PXR; [10]): 1.31

SMILES: C[C@H](CCC(=O)O)[C@H]1CC[C@H]2[C@@H]3[C@@H](O)[C@@H](O)[C@@H]4C[C@H](O)CC[C@]4(C)[C@H]3CC[C@]12C [BI019, β-Muricholic acid]
- Mouse PXR Activity (mouse PXR): No effect
- Rat PXR Activity (rat PXR): No effect

SMILES: C[C@H](CCC(=O)NCC(=O)O)[C@H]1CC[C@H]2[C@@H]3[C@H](O)C[C@@H]4C[C@H](O)CC[C@]4(C)[C@H]3C[C@H](O)[C@]12C [BI021, Glycocholic acid]
- Mouse PXR Activity (mouse PXR): No effect
- Rat PXR Activity (rat PXR): No effect
- Chicken PXR Activity (chicken PXR): No effect

SMILES: C[C@H](CCC(=O)O)[C@H]1CC[C@H]2[C@@H]3C(=O)C[C@@H]4C[C@H](O)CC[C@]4(C)[C@H]3C[C@H](O)[C@]12C [BI042, 5β-Cholanic acid-3α,12α-diol-7-one]
- zfPXR Activity (zebrafish PXR [2]): None
- Rabbit PXR Activity (rabbit PXR): 4.31
- Rabbit PXR efficacy, ε (rabbit PXR): 1.55
- Toxicity (HepG2 cells [6]): None
- hPXR Activity (human PXR [5]; [11]): 4.24
- hPXR Efficacy (human PXR [5]; relative to 10 μM rifampicin, assigned an efficacy of 1.0): 0.49

SMILES: CC(C)CCC[C@@H](C)[C@H]1CC[C@H]2[C@@H]3[C@H](O)C=C4C[C@@H](O)CC[C@]4(C)[C@H]3CC[C@]12C [BI047, 7α-Hydroxycholesterol]
- zfPXR Activity (zebrafish PXR [2]): None
- Toxicity (HepG2 cells [3]): None
- Mouse PXR Activity (mouse PXR): No effect
- Rat PXR Activity (rat PXR): No effect
- Chicken PXR Activity (chicken PXR; -log(EC50), EC50 in molar units): No effect
- Rabbit PXR Activity (rabbit PXR): No effect
- hPXR Activity (human PXR [5]; [11]): None

SMILES: CC(C(=O)O)c1ccc(-c2ccccc2)c(F)c1 (stereo not drawn) [MI15, Flurbiprofen]
- hPXR Efficacy (human PXR [1]): 1.59
- zfPXR Efficacy (zebrafish PXR [2]; zebrafish): 0.53
- Toxicity (HepG2 cells [3]): None
- EC50 (zebrafish PXR [4]): 79.4 µM

SMILES: NC(=O)N1c2ccccc2CC(=O)c2ccccc21 [MI23, Oxcarbazepine]
- zfPXR Efficacy (zebrafish PXR [2]; zebrafish): ~0.30
- Toxicity (HepG2 cells [3]; human, 24 hr): 200 µM
- EC50 (zebrafish PXR [4]): ~20 µM
- EC50 (human PXR [5]; [9]): 18.2 µM

SMILES: CCCOC(=O)c1ccc(O)cc1 [MI27, n-Propyl-4-hydroxybenzoate]
- zfPXR Efficacy (zebrafish PXR [2]; zebrafish): 0.31
- Toxicity (HepG2 cells [3]; human, 24 hr): 100 µM
- EC50 (zebrafish PXR [4]): 52.5 µM
- EC50 (human PXR [5]; [9]): 30.9 µM

SMILES: CC(=O)[C@H]1[C@H](C#N)C[C@H]2[C@@H]3CC=C4C[C@@H](O)CC[C@]4(C)[C@H]3CC[C@@]21C [PR13, 5-Pregnen-16α-cyano-3β-ol-20-one]
- zfPXR Activity (zebrafish PXR [2]): None
- Toxicity (HepG2 cells [3]): None
- Mouse PXR efficacy, ε (mouse PXR): 6.41 (ε = 1.0)
- Mouse PXR Activity (mouse PXR): 6.41 (ε = 1.0)
- Rat PXR efficacy, ε (rat PXR): 6.20 (ε = 1.0)
- Rat PXR Activity (rat PXR): 6.20 (ε = 1.0)
- hPXR Activity (human PXR [5]; [11]): None

SMILES: C#C[C@]1(O)CC[C@H]2[C@@H]3CCC4=CC(=O)CC[C@@H]4[C@H]3CC[C@@]21CC [PR27, 4-Estren-17α-ethynyl-18-homo-17β-ol-3-one]
- zfPXR Efficacy (zebrafish PXR [2]; [7]): 0.86
- Toxicity (HepG2 cells [3]): None
- EC50 (zebrafish PXR [4]; [8]): 1 µM
- EC50 (human PXR [5]; hPXR Activity): 4.27 µM
